According to patent publication US20150133341A1, “Intra-Operative Cancer Diagnosis Based on a Hyperpolarized Marker” (ALBEDA INNOVATIONS APS, priority 2012, published 2015):
Marks after values point to notes of the source that are not given here.

Experiments:
[1] = test system: human prostate cancer cells (PC-3); assay: Metabolism of hyperpolarized substrates in intact human prostate cancer cells; assay type: cell-based; conditions: for Metabolic conversion (a.u.) PC-3 cells: 20 million cells, maximum signal of product 1-13C lactate
Experimental: (§1) Human breast cancer cells (MCF-7) and human prostate cancer cells (PC-3) were grown in RPMI medium with 10% FBS and antibiotics. The cells were at confluence harvested by trypsination and washed once with 5 ml PBS. They were spun down and re-dissolved to a concentration of 20 million cells in 500 μl 40 mM phosphate buffer pH 7.3.
(§2) The cell suspensions were transferred to a 10 mm NMR tube and placed with connecting tubing in a 14.1 T magnet at 37 C.
(§3) Finland radical, carboxylic acid form (1 mg, 0.65 μmol) was dissolved in 1,3-^13C2 ethyl acetoacetate (50 μl, 51 mg, […]). To the solution was added a DMSO solution of the gadolinium complex ([alfa1,alfa4,alfa7-tris[(phenylmethoxy)methyl]-1,4,7,10-tetraazacyclododecane-1,4,7,10-tetraacetato(4-)]gadolinate(1-)]hydrogen) (0.8 mg of a 100 μmol/g solution). The concentration of radical and gadolinium were 13 mM and 1.6 mM respectively. 20 μmol of this composition was hyperpolarised under DNP conditions at 1.2 K in a 3.35 T magnetic field under irradiation with microwave (93.900 GHz). The polarization build-up constant was 750 s. The solid-state polarization was approx. 20%.
(§4) The hyperpolarized sample was dissolved in 5 ml phosphate buffer (40 mM, pH 7.3). The pH after dissolution was 7.3. Following dissolution, 1 ml of the substrate mixture was injected into 20 million cells in suspension. A series of 20 degree pulses every 2 s (56 scans in total) was acquired. The acquisition was started just before injection of the hyperpolarized substrate. Data are presented metabolic signal build-up as a function of time and as maximum metabolite signal.
(§5) The cells were grown and harvested or purified as described in example 3.10. The experiments were performed with single substrates administered to 20 million MCF-7 cells, PC-3 cells or lymphocytes dissolved in a volume of 500 μl 40 mM phosphate buffer pH 7.3. The cell suspensions were transferred to a 10 mm NMR tube and placed with connecting tubing in a 14.1 T magnet at 37° C.
(§6) ^13C6-d7-glucose (22.8 mg, 0.118 mmol) was dissolved in polarization medium (25.0 mg). […]

[2] = test system: human breast cancer cells (MCF-7); assay: Metabolism of hyperpolarized substrates in intact human breast cancer cells; assay type: cell-based; conditions: for Metabolic conversion (a.u.) MCF-7 cells: 20 million cells, maximum signal of product 1-13C lactate; for conversion in breast cancer cells over lymphocytes: quantified by cell number
Experimental: as §1, §2, §3, §4, §5
^13C6-d7-glucose (22.8 mg, 0.118 mmol) was dissolved in polarization medium (25.0 mg). The polarization medium was made of Ox063 radical (19.1 mg, 13.3 μmol) was dissolved in 465 μl water. To this solution was added Gadoteridol (40 mg of 50 μmol/g solution in water). Concentrations: [Ox063]=26.5 mM, [Gd]=4 mM. The total weight of the glucose preparation was: 47.8 mg yielding 2.47 mmol glucose/g preparation.
1-^13C pyruvic acid (55 μl, 70.0 mg) was mixed with Finland radical, sodium salt (1.5 mg, 0.94 μmol) and Gadoteridol (2.1 mg of 50 μmol/g solution in water). Concentrations of radical and Gadolinium were: 17 mM; 2 mM.
20 μmol of either substrate was polarized in a 3.3 T polarizer operating at […] and approx. 1.2 K. Following 45 minutes polarization the samples were dissolved in 5 ml 40 mM phosphate buffer pH 7.3. In the experiments with pyruvic acid an equimolar addition of NaOH was added to neutralize the acid. 2 ml of the dissolved substrate mixture was injected into the cells in suspension. A series of 20 degree pulses every 2 s (56 scans in total) was acquired. The acquisition was started just before injection of the hyperpolarized substrate. Data are presented as maximum metabolite signals, hyperpolarized 1-^13C lactate produced from either glucose or pyruvate.

[3] = test system: breast cancer cells (MCF-7) in the background of human lymphocytes; assay: Co-polarized substrates in model voxels of breast cancer cells in lymphocyte background; assay type: cell-based; conditions: for Metabolic conversion (a.u) 50% cancer cells: 1 million MCF-7 cells and 20 million lymphocytes; for Metabolic conversion (a.u) 100% cancer cells: 2 million MCF-7 cells, 2x2x2 voxel model; for Metabolic conversion (a.u) 0% cancer cells: 40 million lymphocytes
Text: The real time metabolism of breast cancer cells was compared with the metabolism of the lymph node background in model systems containing either only cancer cells (100% cancer), only lymphocytes (0% cancer) or a combination of the two cell types (50% cancer) in cellular concentrations expected to be present in a spatially resolved lymph node containing a macro metastasis. In the clinic, the interest is focused on macro metastasis since these are statistically those, which indicate aggressive cancers (P. Blumencranz, Surg Oncol Clin N Am 20 (2011) 467-485).
The model system was designed assuming a macro metastasis, which is defined to have a minimum diameter of 2 mm (P J. Diest et al., (2010) Breast disease 31: 65-81). In a 2×2×2 mm voxel, 50% of the volume will be cancer cells assuming that the macro metastasis is shaped as a sphere. Three experimental systems were established and carried out: 1) 2 million MCF-7 cells (corresponding to 100% cancer cells in a 2×2×2 voxel), 2) 1 million MCF-7 cells and 20 million lymphocytes (corresponding to 50% cancer cells in a 2×2×2 voxel) and 3) 40 million lymphocytes (corresponding to 0% cancer cells in a 2×2×2 voxel). The cells were grown and harvested or purified as described in example 3.10. The DNP preparations of 1-^13C-pyruvate and 1,3-^13C2-ethyl acetoacetate were made as described in examples 3.10. and 3.11. The substrates (20 μmol each) were co-polarized. The polarization, dissolution and administration to the cells were made as in example 3.11.

human lymphocytes = assay: Metabolism of hyperpolarized substrates in intact human lymphocytes; assay type: cell-based; conditions: for Metabolic conversion (a.u.) Lymphocytes: 20 million cells, maximum signal of product 1-13C lactate
Experimental: Human lymphocytes were purified from whole blood. Whole blood samples were drawn from a healthy volunteer into heparinised venous blood collection tubes (Venosafe vacumtubes from Terumo). For each experiment the blood was purified freshly: Three and a half 10 mL tubes of blood were pooled in each of four 50 mL Leucosep (Greiner) tubes prepared with 15 mL Histopaque 1077 (Sigma). The Leucosep tubes were spun for 15 min at 800× g at 24 C. The plasma was removed and the white blood cells were transferred to a 50 mL falcon tube by decanting and diluted 1:2 in PBS-Mg—Ca for a total volume of 50 mL. The cells were sedimented by centrifugation at 250×g for 60 min. Diluting with trypan blue and counting in hemocytometer determined the total number of lymphocytes before sedimentation. All cells were viable and the total number of cells in each cell batch was approx. 60 million. The lymphocytes were redissolved to a concentration of 20 million cells in 500 μl 40 mM phosphate buffer pH 7.3.
as §2, §3, §4, §5, §6

[4] = test system: breast cancer cells (MDA-MB-231); assay: In cell 13C-NMR detection of 1,4-13C2-malate using 1,4-13C2-fumarate as hyperpolarized marker; assay type: cell-based, human; conditions: 5 million cells; 30 s; normalized to soluble protein; vs 184B5; FIG. 2
Experimental: Step 1: 1,4-^13C2 Fumaric acid (274 mg, 2.32 mmol) was dissolved in a DMSO solution (1660 μl) of trityl radical (Tris(8-carboxy-2,2,6,6-(tetra(methoxyethyl)-benzo-[1,2-4,5′]-bis-(1,3)-dithiole-4-yl)-methyl sodium salt) (19 mM) and gadolinium trimeric complex (Gadolinium chelate of 1,3,5-tris-(N-(DO3A-acetmido)-N-methyl-4-amino-2-methylphenyl)-[1,3,5]triazinane-2,4,6-trione)) (0.8 mM). A sample of this solution (32.5 mg) was hyperpolarized for 60 minutes, at 93.900 GHz and 1.3 K. The sample was dissolved in phosphate buffer (4 ml, pH 7.3, 40 mM) with addition of sodium hydroxide (22 μl, 12M) to neutralize the acid in the hyperpolarized sample.
Step 2: 100 μl of hyperpolarized sodium 1,4-^13C2-fumarate from step 1 was mixed into 500 μl RPMI medium containing 5 million breast cancer cells (MDA-MB-231, human epithelial breast cancer cell line) in a 5 mm NMR tube and placed in a 9.4 T NMR magnet. Signals of 1,4-^13C-malate were detected by acquiring a set of ^13C-MR spectra every 2 s with a 15 degree RF pulse. The amount of 1,4-^13C-malate was calculated 30 s after mixing the hyperpolarized sodium 1,4-^13C2-fumarate into the medium containing cells. Further, the amount of soluble protein in the MDA-MB-231 cells was determined, and the amount of 1,4-^13C-malate was normalized to the protein amount. […]

[5] = test system: prostate cancer cells (PC-3); assay: In cell 13C-NMR detection of 1-13C-lactate using 1-13C-pyruvate as hyperpolarized marker; assay type: cell-based, human; conditions: 5 million cells; PC-3 vs PNT-1A; FIG. 1
Experimental: Step 1: 1-^13C pyruvic acid (1286 mg, 14.4 mmol) was mixed with 25 mg of trityl radical (Tris(8-carboxy-2,2,6,6-(tetra(methoxyethyl)-benzo-[1,2-4,5′]-bis-(1,3)-dithiole-4-yl)-methyl sodium salt) (15 mM) and gadolinium trimeric complex (Gadolinium chelate of 1,3,5-tris-(N-(DO3A-acetmido)-N-methyl-4-amino-2-methylphenyl)-[1,3,5]triazinane-2,4,6-trione)) (0.6 mM). A sample of this solution (9.2 mg) was hyperpolarized for 60 minutes, at 93.900 GHz and 1.3 K. The sample was dissolved in phosphate buffer (4 ml, pH 7.3, 40 mM) with addition of sodium hydroxide (11 μl, 12M) to neutralize the acid in the hyperpolarized sample. The hyperpolarized solution was further diluted with tempered (37° C.) buffer to 30 ml.
Step 2: 500 μl of hyperpolarized sodium 1-^13C-pyruvate from step 1 was mixed into 5 million prostate cancer cells (PC-3, human prostate cell adenocarcinoma) in a 10 mm NMR tube and placed in a 9.4 T NMR magnet. Signals of 1-^13C-pyruvate and 1-^13C-lactate were detected by acquiring a set of ^13C-MR spectra every 3 s with a 15 degree RF pulse and the signal from 1-^13C-lactate was quantified.
Using an identical protocol as outlined above, a second study was performed in healthy prostate cells (PNT-1A, immortalized healthy prostate cells).

Structure (SMILES) | hydrolysis to 1,3-13C2 acetoacetate ([1]; 20 million intact PC-3 cells, FIG. 4) | hydrolysis to 1,3-13C2 acetoacetate ([2]; 20 million intact MCF-7 cells, FIG. 4) | Metabolic conversion (a.u) 50% cancer cells [3] [a.u.] | Metabolic conversion (a.u) 100% cancer cells [3] | Metabolic conversion (a.u) 0% cancer cells [3] [a.u.] | hydrolysis to 1,3-13C2 acetoacetate (human lymphocytes; 20 million intact lymphocytes, FIG. 4) | metabolic conversion, healthy lymphocytes over cancer cells (human lymphocytes; cancer cells quantified by limit-of-detection) | concentration of 1,4-13C-malate in MDA-MB-231 cells compared to healthy breast cells [4] | 1-13C-lactate signal in PC-3 cells compared to non-cancerous prostate cells [5] | Metabolic conversion (a.u.) PC-3 cells [1] [a.u.] | Metabolic conversion (a.u.) MCF-7 cells [2] [a.u.] | conversion in breast cancer cells over lymphocytes [2] [times] | Metabolic conversion (a.u.) Lymphocytes (human lymphocytes) [a.u.]
CCO[13C](=O)C[13C](C)=O [1,3-^13C2 ethyl acetoacetate] | no conversion can be detected | no conversion can be detected | 632 | < 14* a.u. | 1027 | hydrolysed | approx. 33 times | – | – | – | – | – | –
O=[13C](O)/C=C/[13C](=O)O [1,4-^13C2-fumarate] | – | – | – | – | – | – | – | significantly higher | – | – | – | – | –
CC(=O)[13C](=O)O [1-^13C-pyruvate] | – | – | 1853 | 337 a.u. | 2620 | – | – | – | increased | 200 | 1000 | 50 | 40
OC[C@H]1OC(O)[C@H](O)[C@@H](O)[C@@H]1O (some centres unmarked) [^13C6-d7-glucose] | – | – | – | – | – | – | – | – | – | 200 | 500 | 50 | 10
